This note sets out measurements from the Bradley open melting point set (2014).

In general, melting point refers to the temperature, or range, at which the solid turns liquid.

The molecule `N#Cc1cccc([N+](=O)[O-])c1` [m-nitrobenzonitrile] displayed a melting point of 117 °C.

Consider `COC(F)(F)C(Cl)Cl` [Methoxyflurane], for which the melting point was -35 °C.

`COC(=O)c1ccc(OC)cc1` [methyl 4-methoxybenzoate] yielded a melting point of 50 °C.

Turning to `O=Cc1ccccc1[N+](=O)[O-]` [2-nitrobenzaldehyde], the melting point came out at 45 °C.

`O=C1C(Cl)=CC(=NCl)C=C1Cl` [2,6-Dichloro-4-(chloroimino)cyclohexa-2,5-dien-1-one] gave a melting point of 67 °C.

Molecule `CC(=O)Nc1ccc([N+](=O)[O-])cc1` [4'-nitroacetanilide] had a melting point of 216 °C.

As for `C=CCC` [1-butene], the melting point is -185 °C.

For `Oc1cccc2ccccc12` [1-naphthol], the melting point is 96 °C.

`CCCC(=O)O` [Butyric acid]: the melting point was -5 °C.

As for `O=C(O)c1ccc(C(=O)C(F)(F)F)cc1` [4-(trifluoroacetyl)benzoic acid], the melting point turned out to be 178 °C.

Consider `CCC(C)C(C)(COC(N)=O)COC(N)=O` (centres undefined) [mebutamate], for which the melting point was found to be 77 °C.

As for `CCc1ccccc1CC` [o-diethylbenzene], the melting point is -31 °C.

With `Fc1ccc(-c2cc3ccccc3[nH]2)cc1` [2-(4-fluorophenyl)indole], the melting point is 189 °C.

On to `COc1ccc(-c2csc(/C(C#N)=N/Nc3cc(C)ccc3C)n2)cc1`, for which the melting point came out at 156 °C.

With `Cc1ccc(/C=C(\Oc2cccc(C)c2)c2nc3ccccc3s2)cc1`, the melting point is 138 °C.

Take `Clc1ccc(Br)cc1` [p-bromochlorobenzene]: the melting point is 67 °C.

Regarding `CCCCI` [1-iodobutane], the melting point is -103 °C.

Take `CCC(=O)CC` [3-pentanone]: the melting point is -39 °C.

Take `N#CCc1ccccc1` [phenylacetonitrile]: the melting point is -24 °C.

`O=C1c2ccccc2-c2ccccc21` [9-fluorenone] yielded a melting point of 83 °C.

For the molecule `CC(C)(C)OC(=O)N[C@H](CO)C(=O)O` [N-boc-D-serine], the melting point amounted to 90 °C.

Regarding `CCC(C)(C)C` [2,2-dimethylbutane], the melting point was -100 °C.

In turn, `CCOC(=O)/C(C#N)=N\Nc1ccc(Cl)cc1` [Ethyl (2Z)-[(4-chlorophenyl)hydrazono](cyano)acetate] had a melting point of 162 °C.

Consider `COc1ccc(C#N)cc1Br` [3-bromo-4-methoxybenzonitrile], for which the melting point was 122 °C.

Consider `Nc1ccncc1N` [3,4-diaminopyridine], for which the melting point is 219 °C.

As to `C1CCOC1` [Tetrahydrofuran], the melting point was -108 °C.

The molecule `Clc1ccc(Cl)c(I)c1` [1,4-dichloro-2-iodobenzene] showed a melting point of 21 °C.

Molecule `NNC(=O)c1ccc(N)cc1` [4-aminobenzhydrazide] returned a melting point of 228 °C.

`O=C(C(=O)c1ccccc1)c1ccccc1` [benzil] displayed a melting point of 95 °C.

With `Cc1cccc2ccccc12` [1-Methylnaphthalene], the melting point is -22 °C.

On to `OC1c2ccccc2-c2ccccc21` [9-fluorenol], for which the melting point worked out at 156 °C.

`CCCOC1CCC2(C)C(CC(=O)C3C2CCC2(C)C(OCCC)CCC32)C1` (centres undefined) [3,17-dipropoxyandrostan-7-one] gave a melting point of 163 °C.

The molecule `C(=C/c1ccccc1)/c1ccccc1` [cis-stilbene] showed a melting point of 2 °C.

Turning to `Cc1c(C)c2c(c(C)c1O)CC[C@@](C)(CCC[C@H](C)CCC[C@H](C)CCCC(C)C)O2`, the melting point is 2 °C.

`NCC(=O)O` [Glycine] gave a melting point of 240 °C.

`C=CC(=O)OCC` [ethyl acrylate] registered a melting point of -71 °C.

`Cc1c(C)c(C)c(C=O)c(C)c1C` [Pentamethylbenzaldehyde] showed a melting point of 133 °C.

With `COc1ccc2c(c1)no[n+]2[O-]` [5-methoxybenzofuroxan], the melting point worked out at 117 °C.

On to `CC(=O)OC[C@H]1O[C@@H](OC(C)=O)[C@H](OC(C)=O)[C@@H]1OC(C)=O` (stereo in doubt) [beta-D-ribofuranose 1,2,3,5-tetraacetate], for which the melting point came out at 82 °C.

For `CCOC1Oc2ccc(C)cc2C(=O)/C1=C\Nc1nc2ccc(Cl)cc2s1` (centres undefined), the melting point worked out at 147 °C.

Turning to `Clc1cc(Cl)nc(Cl)n1` [2,4,6-trichloropyrimidine], the melting point stood at 23 °C.

As to `BrBr` [Bromine], the melting point is -7.2 °C.

`CC(C)C=O` [2-methylpropanal] showed a melting point of -65 °C.

`NC(=O)c1ccccc1O` [Salicylamide] had a melting point of 140 °C.

In turn, `O=C1CCCCCCCCCCC1` [cyclododecanone] showed a melting point of 61 °C.

As to `CCCCCI` [1-iodopentane], the melting point is -86 °C.

The molecule `Cc1cc(C)cc(O)c1` [3,5-dimethylphenol] returned a melting point of 63 °C.

In the case of `CCC(C)Br` (centres undefined) [2-bromobutane], the melting point is -112 °C.

Molecule `Cc1ccccc1C#N` [o-tolunitrile] showed a melting point of -14 °C.

With `Nc1ccccc1Br` [o-bromoaniline], the melting point came to 30 °C.

With `C/C(=C\C(=O)O)c1ccc(C)cc1` [(2E)-3-(4-methylphenyl)but-2-enoic acid], the melting point was determined as 135 °C.

With `O=C1OC(c2ccc(O)cc2)(c2ccc(O)cc2)c2ccccc21` [phenolphthalein], the melting point came to 260 °C.

`CCOC(=O)c1ccc(OC)c(OC)c1` [ethyl 3,4-dimethoxybenzoate] gave a melting point of 44 °C.

In the case of `CC(=O)Nc1ccc(N)cn1` [2-acetamido-5-aminopyridine], the melting point was determined as 149 °C.

In turn, `OB(O)c1ccccc1Cl` [2-chlorobenzeneboronic acid] yielded a melting point of 98 °C.

The molecule `COC(=O)OC` [dimethyl carbonate] returned a melting point of 4 °C.

As to `O=[N+]([O-])c1cccc(O)c1` [m-nitrophenol], the melting point is 98 °C.

`CCCC[C@H](NC(=O)OCc1ccccc1)C(=O)O` [N-benzyloxycarbonyl-l-norleucine] had a melting point of 57 °C.

Regarding `CCCOC1CCC2C3CC=C4CC5(CCC4(C)C3CCC12C)OCCO5` (centres undefined), the melting point amounted to 209 °C.

Consider `C=C` [ethylene], for which the melting point was -169 °C.

Turning to `NCCC(=O)O` [beta-alanine], the melting point worked out at 200 °C.

`Cc1ccc(C(C)C)cc1` [1-Isopropyl-4-methylbenzene] registered a melting point of -68 °C.

`CN(N)c1ccc(C(F)(F)F)cc1[N+](=O)[O-]` [N-methyl-N-[2-nitro-4-(trifluoromethyl)phenyl]hydrazine]: the melting point stood at 66 °C.

In the case of `Cc1ccccc1OCC(=O)O` [2-methylphenoxyacetic acid], the melting point stood at 154 °C.

For `COC(=O)c1ccc(N)cc1` [methyl 4-aminobenzoate], the melting point is 112 °C.

The molecule `CC12CCC(O)CC1CC1(OCCO1)C1C2CCC2(C)C1CCC21OCCO1` (centres undefined) registered a melting point of 101 °C.

For `CC(=O)OCC(COC(C)=O)OC(C)=O` [glycerol triacetate], the melting point was 3 °C.

For `CCOC(=O)C(NC(C)=O)C(=O)OCC` [diethyl acetamidomalonate], the melting point turned out to be 98 °C.

For `c1cc(C2CNCCN2)cs1` (centres undefined) [2-(3-thienyl)piperazine], the melting point worked out at 98 °C.
